Experimental findings from patent publication US20250340552A1, “COMPOUNDS, COMPOSITIONS AND METHODS OF TREATING DISORDERS” (HOTSPOT THERAPEUTICS, INC., priority 2022, published 2025) are described below.

The target in the assay is T1, Cbl-B (Homo sapiens, UniProt Q13191).
T1 construct: MSD-Based Assay for Degradation of Cbl-B in THP-1 Cells; endogenous in cells; host or cells: THP-1 (title) / Jurkat (protocol text)
The experiment in a line: MSD-based assay for degradation of Cbl-B in THP-1 cells. It counts as cell-based. An outline of the steps:
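THP-1 cells were treated with compound for 24 h at 37 °C. Cbl-B in lysates was quantified by MSD sandwich immunoassay, with anti-Cbl-B capture antibody at 1 ug/mL and SULFO-TAG anti-rabbit detection. Maximal degradation (Dmax) was binned as A >70%, B 50–70%, C 30–50%, D <30%.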

Setting [1] is: Cbl-B degradation, Jurkat cells seeded (heading: THP-1 cells), 24 hours incubation, MSD readout.
Where [2] appears, read: Cbl-B degradation, Jurkat cells seeded (heading: THP-1 cells), 24 hours incubation, MSD readout, read-out: Dmax.

Like-named read-outs stand apart in the source and are kept apart here.

T1 sequence (Q13191 whole entry): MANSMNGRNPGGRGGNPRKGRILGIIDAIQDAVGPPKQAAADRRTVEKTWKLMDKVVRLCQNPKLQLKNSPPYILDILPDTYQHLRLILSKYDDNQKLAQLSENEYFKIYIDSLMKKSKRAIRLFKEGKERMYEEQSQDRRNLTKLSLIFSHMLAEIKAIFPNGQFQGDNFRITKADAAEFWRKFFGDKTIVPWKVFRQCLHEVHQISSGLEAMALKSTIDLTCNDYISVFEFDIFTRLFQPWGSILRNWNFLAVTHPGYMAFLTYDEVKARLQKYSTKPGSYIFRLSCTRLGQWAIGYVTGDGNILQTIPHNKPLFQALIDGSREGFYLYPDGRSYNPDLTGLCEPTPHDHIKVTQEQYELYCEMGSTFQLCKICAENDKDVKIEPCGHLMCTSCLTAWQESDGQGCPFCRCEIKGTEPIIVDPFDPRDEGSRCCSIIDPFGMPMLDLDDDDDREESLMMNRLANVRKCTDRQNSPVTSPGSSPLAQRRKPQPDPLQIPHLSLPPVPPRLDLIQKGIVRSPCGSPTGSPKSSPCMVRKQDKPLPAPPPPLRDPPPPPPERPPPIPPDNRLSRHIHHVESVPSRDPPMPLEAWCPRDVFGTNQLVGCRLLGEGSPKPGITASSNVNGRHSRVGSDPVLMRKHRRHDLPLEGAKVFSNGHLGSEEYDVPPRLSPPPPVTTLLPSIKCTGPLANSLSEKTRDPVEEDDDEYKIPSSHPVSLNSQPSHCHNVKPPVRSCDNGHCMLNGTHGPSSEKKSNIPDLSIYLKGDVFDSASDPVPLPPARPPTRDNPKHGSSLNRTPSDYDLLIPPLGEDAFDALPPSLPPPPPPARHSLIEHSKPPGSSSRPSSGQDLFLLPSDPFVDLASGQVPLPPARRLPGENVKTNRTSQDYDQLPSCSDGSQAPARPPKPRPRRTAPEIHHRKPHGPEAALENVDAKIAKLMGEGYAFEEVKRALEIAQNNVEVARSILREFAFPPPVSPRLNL

Usually DC50 stands for the concentration giving 50% degradation. High values mean degradation only at high concentration, low ones degradation at low concentration. As usually defined, the Dmax is the largest share of the target that was removed. Consider `Cn1cnnc1CC1(c2cccc(-n3cc4c(C(F)(F)F)cc(CN5CCC[C@H](OCc6ccc(CN7CCN(c8ccc9c(c8)CN([C@@H]8CCC(=O)NC8=O)C9=O)CC7)cc6)C5)cn4c3=O)c2)COC1` (single isomer, unassigned) [Compound 83], for which the DC50 under setting [1] is > 10000 nM. In addition, the Dmax under setting [2] was < 30%.
As to `Cn1cnnc1[C@@H](c1cccc(-n2cc3c(C(F)(F)F)cc(CN4CCN(CC(=O)N5CCC(CN6CCN(c7ccc8c(c7)CN([C@@H]7CCC(=O)NC7=O)C8=O)CC6)CC5)CC4)cn3c2=O)c1)C1CCC1` (single isomer, unassigned) [Compound 121], under setting [1], the DC50 lay within 30 to 300 nM. Besides, the Dmax under setting [2] lay within 50 to 70%.
In the case of `Cn1cnnc1[C@@H](c1cccc(-n2cc3c(C(F)(F)F)cc(CN4CCC(OCc5cccc(C(=O)N6CCN(c7ccc8c(c7)CN([C@@H]7CCC(=O)NC7=O)C8=O)CC6)c5)CC4)cn3c2=O)c1)C1CCC1` (single isomer, unassigned) [Compound 153], the DC50 under setting [1] is > 10000 nM. Besides, the Dmax under setting [2] is < 30%.
The corresponding values for `Cn1cnnc1[C@@H](c1cccc(-n2cc3c(C(F)(F)F)cc(CN4CCC[C@H](OC5CCN(C(=O)c6ccc(N7CCN(c8ccc9c(c8)CN([C@@H]8CCC(=O)NC8=O)C9=O)CC7)cc6)CC5)C4)cn3c2=O)c1)C1CCC1` (single isomer, unassigned) [Compound 195] are 30 to 300 nM and 50 to 70%.
In the case of `Cn1cnnc1CC1(c2cccc(-n3cc4c(C(F)(F)F)cc(CN5CCC(C(=O)N6CCC(CN7CCN(c8ccc9c(c8)CN(C8CCC(=O)NC8=O)C9=O)CC7)CC6)CC5)cn4c3=O)c2)COC1` (centres unmarked) [Compound 43], the DC50 under setting [1] was > 10000 nM. The maximal degradation (Dmax) (THP-1) was < 30%.
Take `Cn1cnnc1[C@@H](c1cccc(N2Cc3c(cc(CN4CCC[C@H](OCc5ccc(CC6CCN(c7ccc8c(c7)CN([C@@H]7CCC(=O)NC7=O)C8=O)CC6)cc5)C4)cc3C(F)(F)F)C2=O)c1)C1CCC1` (single isomer, unassigned) [Compound 189]: under setting [1], the DC50 was > 10000 nM. In addition, the Dmax under setting [2] is < 30%.
Take `CN(CCOC1CCN(Cc2cc(C(F)(F)F)c3cn(-c4cccc([C@H](c5nncn5C)C5CCC5)c4)c(=O)n3c2)CC1)C(=O)c1ccc(C2CCN(c3ccc4c(c3)CN([C@@H]3CCC(=O)NC3=O)C4=O)CC2)cc1` (single isomer, unassigned) [Compound 107]: the DC50 under setting [1] is 30 to 300 nM. This molecule also registered a Dmax (THP-1) of 50 to 70%.
With `Cn1cnnc1[C@@H](c1cccc(-n2cc3c(C(F)(F)F)cc(CN4CCC(CC(=O)N5CCC(CC6CCN(c7ccc8c(c7)CN([C@@H]7CCC(=O)NC7=O)C8=O)CC6)CC5)CC4)cn3c2=O)c1)C1CCC1` [Compound 175], the DC50 under setting [1] was > 10000 nM. Besides, the Dmax (THP-1) was < 30%.
`CN(CCC(=O)N1CCC(CN2CCN(c3ccc4c(c3)CN([C@H]3CCC(=O)NC3=O)C4=O)CC2)CC1)Cc1cc(C(F)(F)F)c2cn(-c3cccc([C@H](c4nncn4C)C4CCC4)c3)c(=O)n2c1` (single isomer, unassigned) [Compound 120]: under setting [1], the DC50 fell in the range of 30 to 300 nM. The Dmax under setting [2] lay within 50 to 70%.
On the same counts, the results for `CN(C(=O)c1ccc(N2CCN(c3ccc4c(c3)CN([C@H]3CCC(=O)NC3=O)C4=O)CC2)cc1)C1CCN(Cc2cc(C(F)(F)F)c3cn(-c4cccc([C@H](c5nncn5C)C5CCC5)c4)c(=O)n3c2)CC1` [Compound 138] are 300 to 1000 nM and < 30%.
The corresponding values for `Cn1cnnc1[C@@H](c1cccc(-n2cc3c(C(F)(F)F)cc(CN4CCC(CCN5CCC(CC6CCN(c7ccc8c(c7)CN([C@H]7CCC(=O)NC7=O)C8=O)CC6)CC5)CC4)cn3c2=O)c1)C1CCC1` [Compound 164] are < 30 nM and > 70%.
`Cn1cnnc1[C@@H](c1cccc(-n2cc3c(C(F)(F)F)cc(CN4CCC[C@H](OCc5ccc(CN6CCN(c7ccc8c(c7)CN([C@@H]7CCC(=O)NC7=O)C8=O)CC6)cc5)C4)cn3c2=O)c1)C1CCC1` (single isomer, unassigned) [Compound 81]: the DC50 under setting [1] was > 10000 nM.
Take `CN(CCN(C)C(=O)c1ccc(C2CCN(c3ccc4c(c3)CN([C@H]3CCC(=O)NC3=O)C4=O)CC2)cc1)Cc1cc(C(F)(F)F)c2cn(-c3cccc([C@H](c4nncn4C)C4CCC4)c3)c(=O)n2c1` (single isomer, unassigned) [Compound 212]: the DC50 under setting [1] was > 10000 nM. The Dmax under setting [2] is < 30%.
For the molecule `Cn1cnnc1CC1(c2cccc(-n3cc4c(C(F)(F)F)cc(CN5CCC(OCCCN6CCN(c7ccc8c(c7)CN([C@@H]7CCC(=O)NC7=O)C8=O)CC6)CC5)cn4c3=O)c2)COC1` (single isomer, unassigned) [Compound 67], the DC50 under setting [1] is > 10000 nM. Also, the Dmax (THP-1) is < 30%.
Turning to `Cn1cnnc1CC1(c2cccc(-n3cc4c(C(F)(F)F)cc(CN5CCC(OCCOCc6ccc(CN7CCN(c8ccc9c(c8)CN([C@@H]8CCC(=O)NC8=O)C9=O)CC7)cc6)CC5)cn4c3=O)c2)COC1` (single isomer, unassigned) [Compound 219], the DC50 under setting [1] fell in the range of 30 to 300 nM. The Dmax under setting [2] was 50 to 70%.
Consider `CN(CCOC1CCN(Cc2cc(C(F)(F)F)c3cn(-c4cccc([C@H](c5nncn5C)C5CCC5)c4)c(=O)n3c2)CC1)C(=O)c1ccc(N2CCN(c3ccc4c(c3)CN([C@@H]3CCC(=O)NC3=O)C4=O)CC2)cc1` [Compound 35], for which the DC50 under setting [1] fell in the range of 300 to 1000 nM. The Dmax under setting [2] fell in the range of 50 to 70%.
The corresponding values for `Cn1cnnc1[C@@H](c1cccc(-n2cc3c(C(F)(F)F)cc(CN4CCC[C@H](OCCc5ccc(CN6CCN(c7ccc8c(c7)CN([C@H]7CCC(=O)NC7=O)C8=O)CC6)cc5)C4)cn3c2=O)c1)C1CCC1` (single isomer, unassigned) [Compound 128] are < 30 nM and 50 to 70%.
The corresponding values for `Cn1cnnc1[C@@H](c1cccc(-n2cc3c(C(F)(F)F)cc(CN4CCN(c5ccc(C(=O)N6CCC(C7CCN(c8ccc9c(c8)CN([C@H]8CCC(=O)NC8=O)C9=O)CC7)CC6)cc5)CC4)cn3c2=O)c1)C1CCC1` (single isomer, unassigned) [Compound 210] are < 30 nM and > 70%.
On the same counts, the results for `Cn1cnnc1[C@@H](c1cccc(-n2cc3c(C(F)(F)F)cc(CN4CCC(OCc5cccc(CN6CCN(c7ccc8c(c7)CN([C@@H]7CCC(=O)NC7=O)C8=O)CC6)c5)CC4)cn3c2=O)c1)C1CCC1` (single isomer, unassigned) [Compound 207] are > 10000 nM and < 30%.
For the molecule `Cn1cnnc1CC1(c2cccc(-n3cc4c(C(F)(F)F)cc(CN5CCC(OCCOCc6ccc(CN7CCN(c8ccc9c(c8)CN([C@H]8CCC(=O)NC8=O)C9=O)CC7)cc6)CC5)cn4c3=O)c2)COC1` (single isomer, unassigned) [Compound 220], under setting [1], the DC50 was < 30 nM. Under setting [2], the Dmax is > 70%.
The corresponding values for `CN(C(=O)c1ccc(CN2CCN(c3ccc4c(c3)CN([C@H]3CCC(=O)NC3=O)C4=O)CC2)cc1)C1CCN(Cc2cc(C(F)(F)F)c3cn(-c4cccc([C@H](c5nncn5C)C5CCC5)c4)c(=O)n3c2)CC1` [Compound 160] are < 30 nM and > 70%.
The corresponding values for `Cn1cnnc1[C@@H](c1cccc(-n2cc3c(C(F)(F)F)cc(CN4CCC(CN5CCN(c6ccc7c(c6)CN([C@@H]6CCC(=O)NC6=O)C7=O)CC5)CC4)cn3c2=O)c1)C1CCC1` (single isomer, unassigned) [Compound 85] are > 10000 nM and 30 to 50%.
On the same counts, the results for `CO[C@H]1C[C@](c2cccc(-n3cc4c(C(F)(F)F)cc(CN5CCN(CCc6ccc(N7CCN(c8ccc9c(c8)CN([C@H]8CCC(=O)NC8=O)C9=O)CC7)cc6)CC5)cn4c3=O)c2)(c2nncn2C)C1` [Compound 252] are < 30 nM and > 70%.
For `Cn1cnnc1CC1(c2cccc(-n3cc4c(C(F)(F)F)cc(CNCCOCCOCc5ccc(COCCNc6cccc7c6C(=O)N(C6CCC(=O)NC6=O)C7=O)cc5)cn4c3=O)c2)COC1` (centres unmarked) [Compound 4], the DC50 under setting [1] is > 10000 nM. Moreover, the Dmax under setting [2] was < 30%.
On the same counts, the results for `CO[C@H]1C[C@](c2cccc(-n3cc4c(C(F)(F)F)cc(CN5CCC(OCCOCc6ccc(CN7CCN(c8ccc9c(c8)CN([C@@H]8CCC(=O)NC8=O)C9=O)CC7)cc6)CC5)cn4c3=O)c2)(c2nncn2C)C1` [Compound 221] are 300 to 1000 nM and 30 to 50%.
The corresponding values for `Cn1cnnc1[C@@H](c1cccc(N2Cc3c(cc(CN4CCC[C@@H](OCc5ccc(CC6CCN(c7ccc8c(c7)CN([C@@H]7CCC(=O)NC7=O)C8=O)CC6)cc5)C4)cc3C(F)(F)F)C2=O)c1)C1CCC1` (single isomer, unassigned) [Compound 193] are > 10000 nM and < 30%.
On the same counts, the results for `Cn1cnnc1[C@@H](c1cccc(-n2cc3c(C(F)(F)F)cc(CN4CCC[C@H](OC5CCN(C(=O)c6ccc(N7CCN(c8ccc9c(c8)CN([C@H]8CCC(=O)NC8=O)C9=O)CC7)cc6)CC5)C4)cn3c2=O)c1)C1CCC1` (single isomer, unassigned) [Compound 196] are < 30 nM and > 70%.
`Cn1cnnc1[C@@H](c1cccc(-n2cc3c(C(F)(F)F)cc(CN4CCC(OCCCN5CCN(c6ccc7c(c6)CN([C@@H]6CCC(=O)NC6=O)C7=O)CC5)CC4)cn3c2=O)c1)C1CCC1` (single isomer, unassigned) [Compound 71]: the DC50 under setting [1] was > 10000 nM. Under setting [2], the Dmax was < 30%.
On the same counts, the results for `Cn1cnnc1[C@@H](c1cccc(-n2cc3c(C(F)(F)F)cc(CN4CCC(COCc5ccc(CN6CCN(c7cccc8c7C(=O)N(C7CCC(=O)NC7=O)C8=O)CC6)cc5)CC4)cn3c2=O)c1)C1CCC1` (some centres unmarked) [Compound 28] are > 10000 nM and < 30%.
The corresponding values for `Cn1cnnc1[C@@H](c1cccc(-n2cc3c(C(F)(F)F)cc(CN4CCC[C@@H](OCCN5CCC(CN6CCN(c7ccc8c(c7)CN([C@H]7CCC(=O)NC7=O)C8=O)CC6)CC5)C4)cn3c2=O)c1)C1CCC1` (single isomer, unassigned) [Compound 54] are 30 to 300 nM and > 70%.
